Data: US7687473B2, “5-amino-4-imidazolecarboxamide riboside and its nucleobase as potentiators of antifolate transport and metabolism” (Health Research, Inc., priority 2005, dated 2010)
Read-outs that look alike come from different tables or passages of the source.

Experiments:
CCRF-CEM cells [1] = assay: [3H]MTX uptake (initial velocity and 30 min accumulation) in CCRF-CEM cells; format: cell-based, human; details: for Q10 for extent of [3H]MTX uptake at 30 min / Q10 for vi of [3H]MTX uptake (37° vs. 27°): 1 μM TMTX; for Vmax/Kt from vi (0-5 min) data: 1-10 μM MTX
Experimental: (§1) Quantitation of folate and antifolate uptake. The method is essentially as follows. Briefly, logarithmically growing (3-5×10^5/ml) CCRF-CEM cells were harvested at room temperature by centrifugation at 1000×g for 5 min. After washing with the appropriate medium, cells were suspended at ≈2×10^7 cells/ml for use in transport studies. […] Anion-free MHS contains 250 mM sucrose and 20 mM HEPES, titrated to pH 7.4 with MgO. […] Uptake was measured as a function of time for 30 min (for rate and extent measurements) or over 5 min (studies requiring initial velocities). […] Uptake was terminated by diluting 100 μL samples into 1 ml of iced 0.9% NaCl. […] The supernatant was aspirated. The cell pellet was washed once with 1 ml iced 0.9% NaCl and centrifuged as above. The washed pellet was solubilized in 1 ml of 0.3% Triton X-100 by incubation for 60 min at 37° C. The solubilized pellet was transferred to a scintillation vial, 10 ml of Liquiscint (National Diagnostics, Atlanta, Ga.) was added and radioactivity was quantitated in a Beckman Model LS6500 liquid scintillation counter. Separate samples at the longest incubation time used in a particular experiment were harvested for HPLC analysis of intracellular contents as above, except that after the second wash the pellets were extracted with 1 ml boiling 0.1 M Na-phosphate, pH 5.5. The extract was clarified by centrifugation and the supernatant was filtered through an MPS-1 filter unit (Amicon) prior to HPLC analysis.

[2] = molecular target: T1, reduced folate carrier (RFC) (Homo sapiens, UniProt P41440); assay: Kinetic constants for influx of [3H]MTX by CCRF-CEM cells; format: cell-based
T1 construct: endogenous in cells; host or cells: CCRF-CEM (parental)
T1 sequence (P41440 1-591): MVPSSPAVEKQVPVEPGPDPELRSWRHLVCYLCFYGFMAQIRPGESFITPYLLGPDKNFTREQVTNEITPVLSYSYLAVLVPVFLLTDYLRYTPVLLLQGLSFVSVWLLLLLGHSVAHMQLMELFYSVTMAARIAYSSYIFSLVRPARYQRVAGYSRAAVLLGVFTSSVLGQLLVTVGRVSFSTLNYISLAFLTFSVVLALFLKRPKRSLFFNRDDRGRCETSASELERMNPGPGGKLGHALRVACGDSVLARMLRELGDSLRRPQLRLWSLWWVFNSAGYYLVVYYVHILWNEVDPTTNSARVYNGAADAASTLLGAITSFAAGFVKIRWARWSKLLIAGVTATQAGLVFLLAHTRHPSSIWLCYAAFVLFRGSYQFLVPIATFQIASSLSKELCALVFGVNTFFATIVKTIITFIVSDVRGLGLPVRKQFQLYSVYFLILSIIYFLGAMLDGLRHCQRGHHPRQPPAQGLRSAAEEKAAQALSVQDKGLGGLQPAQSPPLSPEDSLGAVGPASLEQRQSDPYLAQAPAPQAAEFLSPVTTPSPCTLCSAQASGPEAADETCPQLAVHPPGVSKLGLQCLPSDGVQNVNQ
Experimental: as §1
Inhibition of the vi of uptake was measured after pre-incubation of CCRF-CEM cells either with TMTX alone (measuring inhibition at the RFC) or with TMTX+Z (measuring inhibition during Z potentiation). […] All studies were carried out in standard transport medium. Inhibitory potency was measured in two series of experiments and AMT was included in each series as an internal control. Values are average±range of two determinations. […] Values are average±range for duplicate determinations.

CCRF-CEM cells [3] = assay: [3H]MTX efflux from CCRF-CEM cells
[4] = system: CCRF-CEM human leukemia cells; assay: Synthesis of methotrexate polyglutamates by CCRF-CEM cells; format: cell-based
Experimental: MTX polyglutamate synthesis. […] At the end of the exposure cells were rapidly chilled to 4 degrees C., harvested by centrifugation at 1000×g for 5 min, washed twice with iced 0.9% NaCl by centrifugation in the same manner. One mL of boiling 50 mM Na-phosphate, pH 5.5 was added, the pellet was triturated and the sample boiled for 5 min. The sample was rapidly cooled to 4 degrees C. Debris was removed by centrifugation as above. The supernatant was further clarified by centrifugation through an Amicon MPS-1 filter unit. […] A suitable volume was injected onto a reversed-phase HPLC column (C18) and eluted with a gradient of from 4-14% acetonitrile over about 43 min. One min fractions were collected and, after addition of 10 ml scintillation fluid, were quantitated by liquid scintillation counting.

[5] = system: R2 (MTX-resistant CCRF-CEM subline); assay: Inhibition of growth of RFC-defective subline R2; format: cell-based; details: Homo sapiens, continuous exposure, no Z, read-out: EC50 against R2
Experimental: (§2) Inhibition of growth of human cell lines in vitro. Inhibition of growth of CCRF-CEM in continuous and intermittent drug exposures was measured. EC50 values were determined from plots of percent control growth versus the logarithm of drug concentration.
TMTX was present in both conditions to establish DHFR inhibition, since that appears to be required.

CCRF-CEM cells [6] = assay: cells; format: cell-based, human; details: read-out: EC50, growth inhibition
Experimental: as §2
[…]; n=2). […]; n=2). Values presented are average±S.D. for n>2 and average±range for n=2. […] […]; EC50 data may therefore underestimate the biological potency.

[7] = influx of [3H]MTX, pre-incubation with solvent (MTX alone), 1 μM TMTX, or 1 μM TMTX + 0.5 mM Z
[8] = 4 hr exposure to 2 μM [3H]MTX, Z 500 μM where present
[9] = 500 μM Z, 4 hr exposure to 2 μM [3H]MTX

Which results are given for `CN(Cc1cnc2nc(N)nc(N)c2n1)c1ccc(C(=O)N[C@@H](CCC(=O)O)C(=O)O)cc1` [MTX, 4-amino-10-methylpteroylglutamic acid]?
Intracellular radiolabel that is MTX at 30 min (HPLC) (CCRF-CEM cells [1]; absence of Z): 86%; Intracellular radiolabel that is MTX-γ-Glu at 30 min (HPLC) (CCRF-CEM cells [1]; absence of Z): 12%; Q10 for extent of [3H]MTX uptake at 30 min (CCRF-CEM cells [1]; absence of Z): 3.45±0.15; Q10 for vi of [3H]MTX uptake (37° vs. 27°) (CCRF-CEM cells [1]; absence of Z): 4.6±0.3; Vmax/Kt from vi (0-5 min) data (CCRF-CEM cells [1]; absence of Z): 0.44; Q10 for extent of [3H]MTX uptake at 30 min (CCRF-CEM cells [1]; presence of 0.5 mM Z): 3.65±0.15; Q10 for vi of [3H]MTX uptake (37° vs. 27°) (CCRF-CEM cells [1]; presence of 0.5 mM Z): 5.9±0.1; [MTX]i/[MTX]e at 30 min (CCRF-CEM cells [1]; presence of 0.5 mM Z, all MTX concentrations 1-10 μM, assuming 0.55 pL/cell): ≥ 1.9; Vmax/Kt from vi (0-5 min) data (CCRF-CEM cells [1]; presence of 0.5 mM Z): 0.47; Intracellular radiolabel that is MTX at 30 min (HPLC) (CCRF-CEM cells [1]; presence of Z): 83%; Intracellular radiolabel that is MTX-γ-(Glu)2 at 30 min (HPLC) (CCRF-CEM cells [1]; presence of Z): < 1%; Intracellular radiolabel that is MTX-γ-Glu at 30 min (HPLC) (CCRF-CEM cells [1]; presence of Z): 7.5%; Kt [2, 7]: 3.0 ± 0.8 µM; Vmax [2, 7]: 5.8 ± 0.9 pmol/min/10^7 cells; Efflux t1/2 (CCRF-CEM cells [3]; loading and efflux each ±0.5 mM Z (cross-over), 2 μM [3H]MTX): 14.6 to 18.7 min; 4-NH2-10-CH3-PteGlun, N ≧ 3 [4, 8]: 3.8 pmol/10^7 cells; 4-NH2-10-CH3-PteGlun, n = 1 (MTX) [4, 8]: 26.2 pmol/10^7 cells; 4-NH2-10-CH3-PteGlun, n = 2 [4, 8]: 23.8 pmol/10^7 cells; 4-NH2-10-CH3-PteGlun, n = 3 [4, 8]: 2.3 pmol/10^7 cells; 4-NH2-10-CH3-PteGlun, n = 4 [4, 8]: 1.4 pmol/10^7 cells; 4-NH2-10-CH3-PteGlun, n = 5 [4, 8]: 0.1 pmol/10^7 cells; 4-NH2-10-CH3-PteGlun, n ≧ 2 [4, 8]: 27.6 pmol/10^7 cells; Total drug [4, 8]: 53.8 pmol/10^7 cells; EC50 [5]: 2200 nM

With `NC(=O)c1ncn([C@@H]2O[C@H](CO)[C@@H](O)[C@H]2O)c1N` [Z, 5-amino-4-imidazolecarboxamide riboside] as the compound, how does the “Potentiation of 30 min accumulation (highest)” value (CCRF-CEM cells [1]; 0.5 mM Z, 10 μM [3H]MTX) read?
Its value is 6 fold.

What about the “Potentiation of accumulation at 30 min” value (CCRF-CEM cells [1]; 0.5 mM Z, HBSS) of the same compound?
The value was “≈ 4 fold”.

What about the “Potentiation of accumulation at 30 min” value (CCRF-CEM cells [1]; 0.5 mM Z, MHS) of the same compound?
The value was “≈ 2 fold”.

And the “Potentiation of accumulation at 30 min” value (CCRF-CEM cells [1]; 0.5 mM Z, standard medium)?
Its value is “≈ 2 fold”.

And the “Effect on initial influx velocity (vi; 0-5 min)” value (CCRF-CEM cells [1]; Z added 5 min before 2 μM [3H]MTX)?
Its value is “does not affect vi”.

What about the “Delay before potentiation of [3H]MTX uptake” value (CCRF-CEM cells [1]; Z added 10 min after [3H]MTX, data not shown) of the same compound?
Its value is no less than 5 min.

And the “Increase of MTX accumulation at 30 min” value (CCRF-CEM cells [1]; Z at 0.5-1.0 mM, 2 μM [3H]MTX)?
Its value is no less than 3 fold.

What about the “Onset of potentiation of [3H]MTX uptake” value (CCRF-CEM cells [1]; Z present with TMTX in 10 min preincubation) of the same compound?
Its value is “no delay in potentiation”.

And the “Delay before the onset of Z potentiation” value (CCRF-CEM cells [1]; all levels of MTX (1-10 μM), 0.5 mM Z)?
The value was “≈ 10 min”.

What about the “Increase of Vmax of MTX influx” value ([2]; Z addition in presence of TMTX) of the same compound?
The value was “≈ 3 fold”.

And the “Effect on MTX efflux rates” value (CCRF-CEM cells [3]; 0.5 mM Z during uptake and/or efflux)?
Its value is “No significant difference”.

And the EC50 (CCRF-CEM cells [6]; 0-24/120 hr exposure)?
The EC50 was 410 ± 50 µM.

And the EC50 (CCRF-CEM cells [6]; 120 hr exposure)?
Its EC50 is 130 ± 20 µM.

What about the “Increase of MTX polyglutamates (n≧2) accumulation” value [4, 9] of the same compound?
The value was 3.5 fold.

What about the “Increase of longer MTX polyglutamates (n≧3)” value [4, 9] of the same compound?
Its value is 6 fold.

What about the “Increase of total drug accumulation” value [4, 9] of the same compound?
Its value is 3 fold.

What about the “MTXGn accumulation at 1 and 10 μM [3H]MTX” value ([4]; 500 μM Z, data not shown) of the same compound?
The value was “Increased MTXGn accumulation”.

What about the “Drug retained after 2 hr efflux following 4 hr uptake” value ([4]; cells initially treated with Z, data not shown) of the same compound?
The value was “much higher levels of drug”.
